Laboratory results reported in ChEMBL document CHEMBL2074455, “The fluorescent probe Bodipy-FL-verapamil is a substrate for both P-glycoprotein and multidrug resistance-related protein (MRP)-1” (J Histochem Cytochem, 2002).

How the values were obtained:
[1] = target: Multidrug resistance-associated protein 1 (Homo sapiens, UniProt P33527); experiment: TP_TRANSPORTER: efflux, inhibited by MK571 in PANC-1 cells; type: functional, cell-based
[2] = target: ATP-dependent translocase ABCB1 (Mus musculus, UniProt P21447); experiment: TP_TRANSPORTER: efflux, inhibited by Verapamil in P388/ADR cells; type: functional, cell-based
Sequence of ATP-dependent translocase ABCB1 (P21447 whole entry): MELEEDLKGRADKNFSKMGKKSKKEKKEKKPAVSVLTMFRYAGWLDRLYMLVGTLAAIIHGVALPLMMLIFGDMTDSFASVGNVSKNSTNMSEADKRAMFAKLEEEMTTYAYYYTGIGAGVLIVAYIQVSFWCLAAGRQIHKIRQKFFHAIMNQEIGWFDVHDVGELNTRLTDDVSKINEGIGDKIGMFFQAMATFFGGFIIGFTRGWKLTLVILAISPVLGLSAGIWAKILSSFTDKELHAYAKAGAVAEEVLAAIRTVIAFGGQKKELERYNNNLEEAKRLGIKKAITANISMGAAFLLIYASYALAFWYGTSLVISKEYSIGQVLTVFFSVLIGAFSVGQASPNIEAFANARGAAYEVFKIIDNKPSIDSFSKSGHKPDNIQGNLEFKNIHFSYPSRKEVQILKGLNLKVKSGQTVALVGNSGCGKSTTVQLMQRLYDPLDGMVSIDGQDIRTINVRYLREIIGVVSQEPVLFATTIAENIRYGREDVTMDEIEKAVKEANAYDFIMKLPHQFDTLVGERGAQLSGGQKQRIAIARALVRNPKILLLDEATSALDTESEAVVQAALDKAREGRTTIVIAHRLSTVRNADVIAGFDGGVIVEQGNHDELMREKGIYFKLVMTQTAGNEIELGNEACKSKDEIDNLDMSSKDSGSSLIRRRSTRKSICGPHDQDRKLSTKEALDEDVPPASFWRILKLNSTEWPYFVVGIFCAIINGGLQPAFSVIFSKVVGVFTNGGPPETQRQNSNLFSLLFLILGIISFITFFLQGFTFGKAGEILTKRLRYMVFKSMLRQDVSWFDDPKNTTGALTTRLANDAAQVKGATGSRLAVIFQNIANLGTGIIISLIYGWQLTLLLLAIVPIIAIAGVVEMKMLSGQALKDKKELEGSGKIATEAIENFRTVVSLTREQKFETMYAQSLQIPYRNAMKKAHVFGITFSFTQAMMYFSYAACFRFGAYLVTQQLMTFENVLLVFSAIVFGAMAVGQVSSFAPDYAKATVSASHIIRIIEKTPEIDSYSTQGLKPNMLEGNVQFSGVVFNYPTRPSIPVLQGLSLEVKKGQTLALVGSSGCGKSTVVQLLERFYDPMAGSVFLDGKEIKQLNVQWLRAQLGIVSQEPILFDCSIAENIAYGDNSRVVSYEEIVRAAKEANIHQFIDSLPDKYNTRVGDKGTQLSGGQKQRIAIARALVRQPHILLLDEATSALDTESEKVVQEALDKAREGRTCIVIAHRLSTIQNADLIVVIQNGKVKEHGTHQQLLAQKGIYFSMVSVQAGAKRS

Sequence of Multidrug resistance-associated protein 1 (P33527 whole entry): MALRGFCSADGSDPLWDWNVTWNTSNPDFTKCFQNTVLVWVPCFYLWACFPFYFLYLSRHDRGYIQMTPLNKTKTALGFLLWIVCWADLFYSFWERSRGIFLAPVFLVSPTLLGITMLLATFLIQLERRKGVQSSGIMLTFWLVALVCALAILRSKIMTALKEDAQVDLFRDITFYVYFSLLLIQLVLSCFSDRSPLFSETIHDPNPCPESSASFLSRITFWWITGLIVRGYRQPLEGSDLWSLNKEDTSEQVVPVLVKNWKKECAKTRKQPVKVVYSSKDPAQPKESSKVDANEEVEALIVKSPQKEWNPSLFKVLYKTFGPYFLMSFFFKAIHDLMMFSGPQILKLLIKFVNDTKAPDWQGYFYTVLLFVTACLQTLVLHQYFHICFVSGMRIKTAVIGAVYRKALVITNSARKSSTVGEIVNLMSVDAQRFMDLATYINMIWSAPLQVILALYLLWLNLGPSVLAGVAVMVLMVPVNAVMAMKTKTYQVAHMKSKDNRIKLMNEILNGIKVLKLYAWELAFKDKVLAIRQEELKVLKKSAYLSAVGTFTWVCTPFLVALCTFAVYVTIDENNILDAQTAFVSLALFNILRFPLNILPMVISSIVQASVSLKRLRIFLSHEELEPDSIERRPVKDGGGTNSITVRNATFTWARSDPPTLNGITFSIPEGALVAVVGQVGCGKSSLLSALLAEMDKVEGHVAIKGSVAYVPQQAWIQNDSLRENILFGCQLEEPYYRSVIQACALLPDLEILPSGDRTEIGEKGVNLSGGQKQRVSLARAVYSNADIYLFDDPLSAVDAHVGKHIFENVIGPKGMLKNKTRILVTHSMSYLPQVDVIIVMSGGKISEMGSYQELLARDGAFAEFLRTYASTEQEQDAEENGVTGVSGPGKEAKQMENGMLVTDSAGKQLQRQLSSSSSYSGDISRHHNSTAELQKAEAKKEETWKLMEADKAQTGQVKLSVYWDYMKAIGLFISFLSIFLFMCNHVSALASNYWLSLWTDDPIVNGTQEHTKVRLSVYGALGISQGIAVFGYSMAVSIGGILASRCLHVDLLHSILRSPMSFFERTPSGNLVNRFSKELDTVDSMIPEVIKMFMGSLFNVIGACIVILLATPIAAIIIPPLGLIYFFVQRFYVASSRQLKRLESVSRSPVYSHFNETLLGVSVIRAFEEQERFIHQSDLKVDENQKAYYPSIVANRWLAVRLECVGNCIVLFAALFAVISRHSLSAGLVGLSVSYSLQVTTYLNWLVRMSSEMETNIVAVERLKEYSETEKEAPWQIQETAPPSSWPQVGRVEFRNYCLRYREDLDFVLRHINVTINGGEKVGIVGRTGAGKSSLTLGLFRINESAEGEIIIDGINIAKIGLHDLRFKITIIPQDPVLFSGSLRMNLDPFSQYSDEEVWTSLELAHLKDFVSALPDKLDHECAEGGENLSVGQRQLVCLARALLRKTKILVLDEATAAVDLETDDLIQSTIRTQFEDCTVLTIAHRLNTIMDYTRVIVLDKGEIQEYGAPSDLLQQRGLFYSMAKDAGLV

COc1ccc(CCN(C)CCCC(CNC(=O)NCC2=[N+]3C(=Cc4c(C)cc(C)n4[B-]3(F)F)C=C2)(c2ccc(OC)c(OC)c2)C(C)C)cc1OC (configuration not stated)
Activity [1]: substrate [+] | Activity [2]: substrate [+]
